Laboratory results reported in patent publication US10525139B2, “Folate-conjugated molecules for delivery of toxic small molecule inhibitors to cancer cells and methods of use” (priority 2014, dated 2020).
Entries after “also recorded” stand apart in the source; their conditions may differ.

Experiments:
[1] = test system: NOTCH1; assay: NOTCH1 cell surface staining by flow cytometry; type: cell-based, human; conditions: T-ALL cells; for NOTCH1 expression on the cell surface: 24 hours
Source text: (§1) We previously described that the SERCA inhibitors thapsigargin and cyclopiazonic acid impair NOTCH1 maturation leading to an accumulation of full-length, unprocessed polypeptides in the endoplasmic reticulum/Golgi subcellular compartment. An immediate consequence of SERCA inhibition is a decrement in NOTCH1 protein display on the surface of T-ALL cells. […] To further support the hypothesis that Thap-OH impairs mutant NOTCH1 maturation, we evaluated levels of full-length, transmembrane and activated NOTCH1 (ICN1) by WB. Lysates from T-ALL cell lines treated with 1 μM Thap-OH were immunoblotted with an antibody specific for the cytoplasmic portion of NOTCH1 that recognizes both unprocessed NOTCH1 (FL-N1) (˜270 kDa) and the furin-processed transmembrane subunit (TM-N1) (˜110 kDa).
The NOTCH loss was measured via flow cytometry. […] The recapitulation of the thapsigargin effect by JQ-FT is hypothesized to be due to the delivery strategy introduced by folate. […] Here cell growth was assessed using the Promega Cell-Titer Glo ATP-based assay (Promega, Madison, Wis., USA). Luminescence was measured using a Fluostar Omega instrument (BMG-labtech, Ortenberg, Germany).

[2] = test system: T-ALL cell lines; assay: T-ALL cell viability / growth (ATP content, Cell-Titer Glo); type: cell-based, human
[3] = test system: NOTCH1; assay: NOTCH1 processing and activation by western blot (FL-N1, TM-N1, ICN1); type: cell-based, human; conditions: 24 h
Source text: as §1
Both Folate-Thap (JQ-FT) and Thap-OH were tested in T-ALL cell lines with 24 h treatment. […] Lysates were prepared after treatment with indicated doses of thapsigargin, JQ-FT or Thap-OH for 24 hr. The blot shown was stained with an antibody against the C-terminus of NOTCH1 that recognizes both the furin-processed NOTCH1 transmembrane subunit (TM) and the unprocessed NOTCH1 precursor (FL) (FIG. 2A). GAPDH was used as a loading control. Western blots were stained with antibodies specific for γ-secretase-cleaved NOTCH 1 ([…], Cell Signaling, Beverly, Mass., USA), or the C-terminus of NOTCH1 (SC-6014 (C-20) Santa Cruz Biotechnology, Santa Cruz, Calif., USA). Control stains were carried out with antibodies specific for GAPDH (137179, Santa Cruz Biotechnology). Blots were developed with anti-rabbit-HRP (NA9340V, Amersham, Pittsburgh, Pa., USA) or anti-mouse-HRP (NA9340V or NA9310V, Amersham). Staining was quantified using ImageQuant TI V 7.0 (GE Health Care, Piscataway, N.J., USA).

[4] = LCMS analysis of cell lysate and media; type: in vitro ADME; conditions: 24 h treatment with FT
Method: In order to validate the delivery of the Thap-OH, LCMS analysis of the cell lysate and the media was used to detect the presence of both Folate-Thap (FT) and Thap-OH. […] To directly visualize the folate delivery of a small molecule, folic acid derivatives with appended fluorophores were designed. Both Folate-FITC, suitable for flow cytometry studies, and Folate-TMARA, suitable for high-throughput fluorescence plate readers, were evaluated in vitro to determine the delivery mechanism.

[5] = Maximal tolerated dose in mice; type: in vivo
Method: Though the JQ-FT conjugate has not, as yet, been optimized for pharmacologic properties, we are eager to explore the utility of the compound as an in vivo chemical probe, while assessing putative tolerability of folate-conjugated thapsigargins. We first established the maximal tolerated dose (MTD) of JQ-FT as 60 mg/kg/day in mice, as administered by daily intraperitoneal injection. […] We therefore initiated treatment studies of JQ-FT (60 mg/kg IP daily) in mice with established T-ALL.

In the case of C/C=C(/C)C(=O)O[C@H]1C(C)=C2C([C@@H]1OC(=O)CCCCCCC)[C@@](C)(OC(C)=O)C[C@H](OC(=O)CC[C@H](NC(=O)c1ccc(NCc3cnc4nc(N)[nH]c(=O)c4n3)cc1)C(=O)O)[C@@]1(O)[C@H]2OC(=O)[C@@]1(C)O (stereo partly drawn) [JQ-FT], the “effect on cell surface NOTCH1 compared with thapsigargin” value [1] is reported as “more similar to thapsigargin at 20 uM”, the “NOTCH1 expression on the cell surface” value [1] is reported as “show NOTCH loss” and the “NOTCH1 expression on the cell surface” value ([1]; listed as Folate-Thap) is reported as “loss of Notch in a manner similar to thapsigargin”. The cell cycle ([2]; T-ALL cell lines, 10 μM) was “G1 cell cycle arrest”, the “induction of apoptosis in T-ALL cell lines” value ([2]; T-ALL cell lines, 10 μM) was “rapid induction of apoptosis” and the “effect on cell viability in FR-overexpressing cell lines” value ([2]; cell lines overexpressing FR1 or FR2) was “greater effect on cell viability”. The “furin-processed transmembrane NOTCH1 subunit (TM-N1) level” value ([3]; T-ALL cell lines with HD mutations, Thap-OH at 1 μM) was “loss of trans-membrane NOTCH; also recorded: decrement of transmembrane NOTCH1”, the ICN1 level ([3]; T-ALL cell lines) was “Loss of ICN1” and the “unprocessed full-length NOTCH1 (FL-N1) level” value ([3]; T-ALL cell lines) was “accumulation of full length NOTCH; also recorded: accumulation of full length NOTCH1”. The “detection of the conjugate in cell culture media and cell lysate” value [4] was “not detected in either cell culture media (24 h treatment) or cell lysate”, the “MTD relative to MTD of unconjugated thapsigargin” value [5] was 150 fold and the MTD ([5]; mouse, in vivo, ip, daily intraperitoneal injection) was 60 mg/kg/day.
